Read-outs that look alike come from different tables or passages of the source.
Legend:
[1] = molecular target: SARS-CoV-2 main protease (M^Pro) (Severe acute respiratory syndrome coronavirus 2, UniProt P0DTD1); experiment: In vitro M^Pro enzymatic inhibition with fluorogenic substrate Sub3; format: biochemical
[2] = molecular target: M^Pro-eGFP fusion protein in 293T cells (Severe acute respiratory syndrome coronavirus 2, UniProt P0DTD1); experiment: cell-based; parameters: species or system SARS-CoV-2
[3] = system: SARS-CoV-2 (USA-WA1/2020); experiment: Plaque reduction neutralization test in Vero E6 cells; format: cell-based; conditions: SARS-CoV-2 USA-WA1/2020, Vero E6 cells, 3 days, read-out: Antiviral EC50
[4] = Cytotoxicity, MTT assay; format: cell-based; conditions: human, HEK293T cells, 293T cells
Experimental: Because of their high antiviral potency, MPI60 and MPI61 were advanced to characterizations of cytotoxicity and in vitro metabolic stability. For the cytotoxicity characterization, we used 293T cells and the MTT assay.[42] […] These CC50 values are similar to that of nirmatrelvir and lead to high calculated selectivity indices (CC50/antiviral EC50) for both compounds. The in vitro metabolic stability analysis for MPI60 and MPI61 was conducted using human liver microsomes.
HEK293T cells were seeded in 96-well plates and incubated at 37 °C and 5% CO2 for 24 h. The cells were then treated with different concentrations (200, 100, 50, 25, 12.5, 6.25, 3.125, 1.5625, 0.78125, and 0 μM) of the tested compound in triplicate for 48 h. Cell viability was assessed by the MTT assay to determine CC50. For the MTT assay, 20 μL MTT (5 mg/mL) was added to each well and incubated with cells for 4 h. After that, the supernatant was removed, and 200 μL DMSO was added per well. The absorbance was recorded at 490 nm. The CC50 value was determined by plotting the normalized cell viability (%) against the compound concentration.
Figure S5. Cytotoxicity curves of MPI60 and MPI61 in 293T cells tested by the MTT assay.
(1 picture or pasted object on this page, not shown here)

[5] = In vitro metabolic stability in human liver microsomes; conditions: pH 7.4
[6] = 20 nM M^Pro, 10 μM Sub3, 30 min preincubation, read-out: Enzymatic IC50
[7] = read-out: IC50 (M^Pro enzymatic inhibition)
[8] = Severe acute respiratory syndrome coronavirus 2, Vero C1008, 72 h

Structure (SMILES) | IC50 [1, 6] | EC50 ([2]; read-out: Cellular EC50) | EC50 [3, 8] | also measured
CC1(C)[C@@H]2[C@@H](C(=O)N[C@H](C=O)C[C@@H]3CCNC3=O)N(C(=O)COc3ccc(Cl)cc3Cl)C[C@@H]21 [MI-14, (1R,2S,5S)-3-(2-(2,4-Dichlorophenoxy)acetyl)-6,6-dimethyl-N-((S)-1-oxo-3-((S)-2-oxopyrrolidin-3-yl)propan-2-yl)-3-azabicyclo[3.1.0]hexane-2-carboxamide, reference compound] | 28 nM | 280 nM |  | IC50 [1, 7]: ≤ 50 nM
O=C[C@H](C[C@@H]1CCNC1=O)NC(=O)[C@@H]1[C@H]2CCC[C@H]2CN1C(=O)COc1ccc(Cl)c(Cl)c1 [MI-31, (1S,3aR,6aS)-2-(2-(3,4-Dichlorophenoxy)acetyl)-N-((S)-1-oxo-3-((S)-2-oxopyrrolidin-3-yl)propan-2-yl)octahydrocyclopenta[c]pyrrole-1-carboxamide, reference compound] | 42 nM | 2700 nM |  | IC50 [1, 7]: ≤ 50 nM
CC(C)(C)C[C@H](NC(=O)c1cc2ccccc2[nH]1)C(=O)N[C@H](C=O)C[C@@H]1CCNC1=O [MPI48, N-((S)-4,4-Dimethyl-1-oxo-1-(((S)-1-oxo-3-((S)-2-oxopyrrolidin-3-yl)propan-2-yl)amino)pentan-2-yl)-1H-indole-2-carboxamide] | 29 nM | 1600 nM |  | 
COc1cccc2[nH]c(C(=O)N[C@@H](CC(C)(C)C)C(=O)N[C@H](C=O)C[C@@H]3CCNC3=O)cc12 [MPI49, N-((S)-4,4-Dimethyl-1-oxo-1-(((S)-1-oxo-3-((S)-2-oxopyrrolidin-3-yl)propan-2-yl)amino)pentan-2-yl)-4-methoxy-1H-indole-2-carboxamide] | 74 nM | 910 nM | 1300 nM | 
CC(C)(C)C[C@H](NC(=O)OCc1ccccc1)C(=O)N[C@H](C=O)C[C@@H]1CCNC1=O [MPI50, Benzyl ((S)-4,4-Dimethyl-1-oxo-1-(((S)-1-oxo-3-((S)-2-oxopyrrolidin-3-yl)propan-2-yl)amino)pentan-2-yl)carbamate] | 53 nM | 730 nM | < 1000 nM | EC50 [3]: 750 nM
O=C[C@H](C[C@@H]1CCNC1=O)NC(=O)[C@H](CC1CCCCC1)NC(=O)OCc1ccccc1 [MPI51, Benzyl ((S)-3-Cyclohexyl-1-oxo-1-(((S)-1-oxo-3-((S)-2-oxopyrrolidin-3-yl)propan-2-yl)amino)propan-2-yl)carbamate] | 56 nM | 770 nM | 6700 nM | 
O=C[C@H](C[C@@H]1CCNC1=O)NC(=O)[C@H](CC1CCCCC1)NC(=O)OCc1cccc(Cl)c1 [MPI52, 3-Chlorobenzyl ((S)-3-Cyclohexyl-1-oxo-1-(((S)-1-oxo-3-((S)-2-oxopyrrolidin-3-yl)propan-2-yl)amino)propan-2-yl)carbamate] | 110 nM | 590 nM | 2600 nM | 
CC(=O)Oc1cccc(COC(=O)N[C@@H](CC2CCCCC2)C(=O)N[C@H](C=O)C[C@@H]2CCNC2=O)c1 [MPI53, 3-(((((S)-3-Cyclohexyl-1-oxo-1-(((S)-1-oxo-3-((S)-2-oxopyrrolidin-3-yl)propan-2-yl)amino)propan-2-yl)carbamoyl)oxy)methyl)phenyl Acetate] | 98 nM | 3500 nM |  | 
CC(C)(C)O[C@@H]1C[C@@H](C(=O)N[C@H](C=O)C[C@@H]2CCNC2=O)N(C(=O)OCc2ccccc2)C1 [MPI55] | 560 nM |  |  | 
O=C[C@H](C[C@@H]1CCNC1=O)NC(=O)[C@@H]1C[C@@H](C2CCCCC2)CN1C(=O)OCc1ccccc1 [MPI56, (2S,4S)-Benzyl 4-Cyclohexyl-2-(((S)-1-oxo-3-((S)-2-oxopyrrolidin-3-yl)propan-2-yl)carbamoyl)pyrrolidine-1-carboxylate] | 510 nM |  |  | 
CC1(C)[C@@H]2[C@@H](C(=O)NC(C=O)CC3CCNC3=O)N(C(=O)OCc3ccccc3)C[C@@H]21 (stereo partly drawn) [MPI57, Benzyl (1R,2S,5S)-6,6-Dimethyl-2-((1-oxo-3-(2-oxopyrrolidin-3-yl)propan-2-yl)carbamoyl)-3-azabicyclo[3.1.0]hexane-3-carboxylate] |  |  | 1500 nM | 
O=C[C@H](C[C@@H]1CCNC1=O)NC(=O)[C@@H]1CC2(CC2)CN1C(=O)OCc1ccccc1 [MPI58, Benzyl (S)-6-(((S)-1-oxo-3-((S)-2-oxopyrrolidin-3-yl)propan-2yl)carbamoyl)-5-azaspiro[2,4]heptane-5-carboxylate] | 25 nM | 660 nM | 3600 nM | 
O=C[C@H](C[C@@H]1CCNC1=O)NC(=O)[C@@H]1CC2(CCC2)CN1C(=O)OCc1ccccc1 [MPI59, Benzyl (S)-7-(((S)-1-Oxo-3-((S)-2-oxopyrrolidin-3-yl)propan-2-yl)carbamoyl)-6-azaspiro[3.4]octane-6-carboxylate] | 30 nM | 430 nM | < 1000 nM | EC50 [3]: 560 nM
O=C[C@H](C[C@@H]1CCNC1=O)NC(=O)C1CC2(CCCC2)CN1C(=O)OCc1ccccc1 (stereo partly drawn) [MPI60, Benzyl 3-(((S)-1-Oxo-3-((S)-2-oxopyrrolidin-3-yl)propan-2-yl)carbamoyl)-2-azaspiro[4.4]nonane-2-carboxylate] | 22 nM | 88 nM |  | EC50 ([2]; read-out: cellular EC50): < 100 nM; CC50 at 48 h [4]: 95000 nM; CLint scaled at 5 μM [5]: 16 mL/min/kg; half-life at 5 μM [5]: 1.82 h
CC1(C)[C@@H]2[C@@H](C(=O)N[C@H](C=O)C[C@@H]3CCNC3=O)N(C(=O)CNc3ccc(Cl)cc3)C[C@@H]21 [MPI62, (1R,2S,5S)-3-((4-Chlorophenyl)glycyl)-6,6-dimethyl-N-((S)-1-oxo-3-((S)-2-oxopyrrolidin-3-yl)propan-2-yl)-3-azabicyclo[3.1.0]hexane-2-carboxamide] | 990 nM |  |  | 
O=C[C@H](C[C@@H]1CCNC1=O)NC(=O)[C@@H]1CC2(CC2)CN1C(=O)COc1ccc(Cl)cc1Cl [MPI63, (S)-5-(2-(2,4-Dichlorophenoxy)acetyl)-N-((S)-1-oxo-3-((S)-2-oxopyrrolidin-3-yl)propan-2-yl)-5-azaspiro[2.4]heptane-6-carboxamide] | 39 nM | 2900 nM |  | 
CC1(C)[C@@H]2[C@@H](C(=O)N[C@H](C=O)C[C@@H]3CCNC3=O)N(C(=O)COC3CCCCC3)C[C@@H]21 [MPI64, (1R,2S,5S)-3-(2-(Cyclohexyloxy)acetyl)-6,6-dimethyl-N-((S)-1-oxo-3-((S)-2-oxopyrrolidin-3-yl)propan-2-yl)-3-azabicyclo[3.1.0]hexane-2-carboxamide] | 25 nM | 3600 nM |  | 
CC1(C)[C@@H]2[C@@H](C(=O)N[C@H](C=O)C[C@@H]3CCNC3=O)N(C(=O)CCC3CCCCC3)C[C@@H]21 [MPI65, (1R,2S,5S)-3-(3-Cyclohexylpropanoyl)-6,6-dimethyl-N-((S)-1-oxo-3-((S)-2-oxopyrrolidin-3-yl)propan-2-yl)-3-azabicyclo[3.1.0]hexane-2-carboxamide] | 41 nM | 560 nM | < 1000 nM | EC50 [3]: 960 nM
N#C[C@H](C[C@@H]1CCNC1=O)NC(=O)C1CC2(CCCC2)CN1C(=O)OCc1ccccc1 (stereo partly drawn) [MPI66-1, Benzyl 3-(((S)-1-Cyano-2-((S)-2-oxopyrrolidin-3-yl)ethyl)carbamoyl)-2-azaspiro[4.4]nonane-2-carboxylate] | 2200 nM |  |  | 
N#C[C@H](C[C@@H]1CCNC1=O)NC(=O)C1CC2(CCCC2)CN1C(=O)OCc1cccc(Cl)c1 (stereo partly drawn) [MPI66-2, 3-Chlorobenzyl 3-(((S)-1-Cyano-2-((S)-2-oxopyrrolidin-3-yl)ethyl)carbamoyl)-2-azaspiro[4.4]nonane-2-carboxylate] | 3600 nM |  |  | 
COc1cccc2[nH]c(C(=O)N3CC4(CCCC4)CC3C(=O)N[C@H](C=O)C[C@@H]3CCNC3=O)cc12 (stereo partly drawn) [MPI66-3, 2-(4-Methoxy-1H-indole-2-carbonyl)-N-((S)-1-oxo-3-((S)-2-oxopyrrolidin-3-yl)propan-2-yl)-2-azaspiro[4.4]nonane-3-carboxamide] | 1500 nM |  |  | 
COc1cccc2[nH]c(C(=O)N3CC4(CCCC4)CC3C(=O)N[C@H](C#N)C[C@@H]3CCCNC3=O)cc12 (stereo partly drawn) [MPI66-4, N-((S)-1-Cyano-2-((S)-2-oxopiperidin-3-yl)ethyl)-2-(4-methoxy-1H-indole-2-carbonyl)-2-azaspiro[4.4]nonane-3-carboxamide] | 6000 nM |  |  | 
N#C[C@H](C[C@@H]1CCNC1=O)NC(=O)C1CC2(CCCCC2)CN1C(=O)OCc1ccccc1 (stereo partly drawn) [MPI67, Benzyl 3-(((S)-1-Cyano-2-((S)-2-oxopyrrolidin-3-yl)ethyl)carbamoyl)-2-azaspiro[4.5]decane-2-carboxylate] | 1400 nM |  |  | 
CC(C)(C)OC(=O)N1CC2(CCC2)C[C@H]1C(=O)N[C@H](C=O)C[C@@H]1CCNC1=O [YR-B-101, tert-Butyl-(S)-7-(((S)-1-oxo-3-((S)-2-oxopyrrolidin-3-yl)propan-2-yl)carbamoyl)-6-azaspiro[3.4]octane-6-carboxylate] | > 5000 nM |  |  | 

— paper PMC10861299, “A Systematic Survey of Reversibly Covalent Dipeptidyl Inhibitors of the SARS-CoV-2 Main Protease” (Journal of Medicinal Chemistry, 2023)
